ChEMBL document CHEMBL5316322, “Discovery and Characterization of the Topical Soft JAK Inhibitor CEE321 for Atopic Dermatitis” (J Med Chem, 2023)
Converted amounts (≈) assume the structure as drawn. The source made the active and inactive calls. The rule behind the calls is not given here.

Experiments:
in vitro = settings: human, liver microsomes
Description: Microsomal stability in human liver microsomes assessed as intrinsic clearance

[1] = Lipophilicity, log D of the compound; type: physicochemical; settings: octanol/water
[2] = molecular target: Tyrosine-protein kinase JAK2 (Homo sapiens, UniProt O60674)
[3] = molecular target: T1, Tyrosine-protein kinase JAK3 (Homo sapiens, UniProt P52333)
T1 sequence (P52333 whole entry): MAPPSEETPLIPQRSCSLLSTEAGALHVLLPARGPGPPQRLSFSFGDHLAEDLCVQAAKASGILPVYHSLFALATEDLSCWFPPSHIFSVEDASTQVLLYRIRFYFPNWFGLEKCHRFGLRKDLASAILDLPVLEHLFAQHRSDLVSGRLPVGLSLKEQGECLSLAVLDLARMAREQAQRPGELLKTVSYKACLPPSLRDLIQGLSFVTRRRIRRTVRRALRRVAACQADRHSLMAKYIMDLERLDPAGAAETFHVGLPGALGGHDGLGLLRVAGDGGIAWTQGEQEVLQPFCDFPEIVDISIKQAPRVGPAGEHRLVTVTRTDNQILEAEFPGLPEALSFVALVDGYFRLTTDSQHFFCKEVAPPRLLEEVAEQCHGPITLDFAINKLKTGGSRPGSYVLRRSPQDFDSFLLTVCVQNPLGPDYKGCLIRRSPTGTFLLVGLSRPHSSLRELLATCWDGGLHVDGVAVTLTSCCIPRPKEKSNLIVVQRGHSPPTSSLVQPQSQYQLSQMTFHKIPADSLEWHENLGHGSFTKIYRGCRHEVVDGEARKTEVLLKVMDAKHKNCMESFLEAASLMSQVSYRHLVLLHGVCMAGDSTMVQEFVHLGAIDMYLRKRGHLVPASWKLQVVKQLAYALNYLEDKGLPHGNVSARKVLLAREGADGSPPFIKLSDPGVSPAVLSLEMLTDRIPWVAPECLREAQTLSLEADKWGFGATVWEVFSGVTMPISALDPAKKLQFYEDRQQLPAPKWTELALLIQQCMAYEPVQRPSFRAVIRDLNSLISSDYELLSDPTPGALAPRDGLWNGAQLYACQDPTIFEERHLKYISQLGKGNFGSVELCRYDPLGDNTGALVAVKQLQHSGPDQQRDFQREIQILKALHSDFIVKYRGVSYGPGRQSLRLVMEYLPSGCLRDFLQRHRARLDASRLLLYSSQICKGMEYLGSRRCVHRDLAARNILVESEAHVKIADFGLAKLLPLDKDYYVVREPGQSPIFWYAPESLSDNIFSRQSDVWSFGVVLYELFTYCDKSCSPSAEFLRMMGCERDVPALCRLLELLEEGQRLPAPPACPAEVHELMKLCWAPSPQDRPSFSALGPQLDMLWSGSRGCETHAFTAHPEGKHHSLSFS

[4] = molecular target: Non-receptor tyrosine-protein kinase TYK2 (Homo sapiens, UniProt P29597)
Description: Inhibition of TYK2 (unknown origin) by caliper technology

JAK1/TYK2 = JAK1/TYK2 (Homo sapiens, UniProt P23458+P29597); type: cell-based, M07E
Description: Inhibition of JAK1/TYK2 in human M07E cells assessed as reduction of IFN alpha stimulated STAT phosphorylation preincubated for 30 mins followed by IFN alpha stimulation and measured after 15 mins by flow cytometry method

[5] = molecular target: Tyrosine-protein kinase JAK1 (Homo sapiens, UniProt P23458)
JAK3/JAK1 [6] = molecular target: T2, JAK3/JAK1 (Homo sapiens, UniProt P23458+P52333); type: tissue-based, Blood
Description: Inhibition of JAK1/JAK3 in human blood assessed as reduction of IL-2 stimulated STAT phosphorylation preincubated for 30 mins followed by IL-2 stimulation and measured after 15 mins by flow cytometry method

JAK3/JAK1 [7] = molecular target: T2, JAK3/JAK1; type: cell-based, M07E
Description: Inhibition of JAK1/JAK3 in human M07E cells assessed as reduction of IL-15 stimulated STAT phosphorylation preincubated for 30 mins followed by IL-15 stimulation and measured after 15 mins by flow cytometry analysis

[8] = Plasma protein binding in human; type: ADME, cell-free; settings: read-out: PPB
[9] = molecular target: T3, Janus Kinase (JAK) (Homo sapiens) (UniProt P52333+P23458+O60674+P29597); assay: Inhibition of JAK in human skin assessed as reduction in TARC release at 1 uM incubated for 24 hrs in the presence of IL4/IL13 by MSD analysis relative to control; type: tissue-based; settings: Skin of body
[10] = molecular target: Glycogen synthase kinase-3 beta (Homo sapiens, UniProt P49841); assay: Inhibition of GSK3B (unknown origin) by caliper microfluidic mobility shift technology
[11] = Metabolic stability in rat hepatocytes assessed as intrinsic clearance; type: ADME, cell-based, Hepatocyte
[12] = Drug excretion in iv dosed bile duct cannulated rat urine assessed as unchanged drug; type: ADME, organism-based; settings: read-out: Drug excretion
[13] = […] in mouse 3T3 cells by neutral red uptake assay; type: toxicity, cell-based; settings: nih3t3
[14] = Microsomal stability in minipig liver microsomes assessed as intrinsic clearance; type: ADME, Sus scrofa domesticus, Microsome; settings: pig
[15] = Metabolic stability in human hepatocytes assessed as intrinsic clearance; type: ADME, cell-based, Hepatocyte
Homo sapiens [16] = assay: Inhibition of IL4/IL13 stimulated MMP12 gene expression in human fresh skin epidermal explant Franz cell model administered topically to human skin epidermis preincubated with compound overnight followed by IL4/IL13 stimulation and measured after 24 hrs by qRT-PCR analysis; type: functional, tissue-based; settings: Skin of body, route top, time 32.0 hrs
[17] = Half life in rat; type: ADME; settings: in vivo
[18] = Drug uptake in topically administered human skin at 1 mm of depth by MALDI-IMS analysis; type: ADME, tissue-based, Skin of body; settings: topical or ocular, route top, read-out: Drug uptake
[19] = molecular target: Mitogen-activated protein kinase kinase kinase kinase 4 (Homo sapiens, UniProt O95819); assay: Inhibition of MAP4K4 (unknown origin) by caliper microfluidic mobility shift technology
[20] = molecular target: T3, Janus Kinase (JAK) (Homo sapiens); assay: Inhibition of JAK in human skin assessed as reduction in TARC release at 10 uM incubated for 24 hrs in the presence of IL4/IL13 by MSD analysis relative to control; type: tissue-based; settings: Skin of body
Homo sapiens [21] = assay: Inhibition of IL4/IL13 stimulated TARC gene expression in human fresh skin epidermal explant Franz cell model administered topically to human skin epidermis preincubated with compound overnight followed by IL4/IL13 stimulation and measured after 24 hrs by qRT-PCR analysis; type: functional, tissue-based; settings: Skin of body, route top, time 32.0 hrs
[22] = Drug concentration in topically administered human skin epidermis by MALDI-IMS analysis; type: ADME, tissue-based; settings: topical_or_ocular, route top, read-out: Drug uptake
[23] = Drug uptake in topically administered human skin at 0.5 mm of depth by MALDI-IMS analysis; type: ADME, tissue-based, Skin of body; settings: topical or ocular, route top, read-out: Drug uptake
[24] = Drug exposure in topically dosed minipig and measured for 14 days; type: ADME, organism-based, Sus scrofa domesticus; settings: pig, in vivo, topical_or_ocular, 336 h; route top, time 14 day
Homo sapiens [25] = assay: Inhibition of IL4/IL13 stimulated Eotaxin 3 gene expression in human fresh skin epidermal explant Franz cell model administered topically to human skin epidermis preincubated with compound overnight followed by IL4/IL13 stimulation and measured after 24 hrs by qRT-PCR analysis; type: functional, tissue-based; settings: Skin of body, route top, time 32.0 hrs
[26] = Microsomal stability in rat liver microsomes assessed as intrinsic clearance; type: ADME, Microsome
[27] = Aqueous solubility of the compound at pH 6.8; type: physicochemical
[28] = Clearance in rat; type: ADME; settings: in vivo
[29] = molecular target: T4, Signal transducer and activator of transcription 6 (Homo sapiens) (UniProt P42226); assay: Inhibition of IL4/IL13 induced STAT6 phosphorylation in topically administered human skin assessed as reduction in phosphorylated STAT6 level preincubated with compound overnight followed by IL4/1L13 stimulation and measured after 3 hrs by Western blot analysis; type: tissue-based; settings: Skin of body, route top, time 11.0 hrs
T4 sequence (whole entry): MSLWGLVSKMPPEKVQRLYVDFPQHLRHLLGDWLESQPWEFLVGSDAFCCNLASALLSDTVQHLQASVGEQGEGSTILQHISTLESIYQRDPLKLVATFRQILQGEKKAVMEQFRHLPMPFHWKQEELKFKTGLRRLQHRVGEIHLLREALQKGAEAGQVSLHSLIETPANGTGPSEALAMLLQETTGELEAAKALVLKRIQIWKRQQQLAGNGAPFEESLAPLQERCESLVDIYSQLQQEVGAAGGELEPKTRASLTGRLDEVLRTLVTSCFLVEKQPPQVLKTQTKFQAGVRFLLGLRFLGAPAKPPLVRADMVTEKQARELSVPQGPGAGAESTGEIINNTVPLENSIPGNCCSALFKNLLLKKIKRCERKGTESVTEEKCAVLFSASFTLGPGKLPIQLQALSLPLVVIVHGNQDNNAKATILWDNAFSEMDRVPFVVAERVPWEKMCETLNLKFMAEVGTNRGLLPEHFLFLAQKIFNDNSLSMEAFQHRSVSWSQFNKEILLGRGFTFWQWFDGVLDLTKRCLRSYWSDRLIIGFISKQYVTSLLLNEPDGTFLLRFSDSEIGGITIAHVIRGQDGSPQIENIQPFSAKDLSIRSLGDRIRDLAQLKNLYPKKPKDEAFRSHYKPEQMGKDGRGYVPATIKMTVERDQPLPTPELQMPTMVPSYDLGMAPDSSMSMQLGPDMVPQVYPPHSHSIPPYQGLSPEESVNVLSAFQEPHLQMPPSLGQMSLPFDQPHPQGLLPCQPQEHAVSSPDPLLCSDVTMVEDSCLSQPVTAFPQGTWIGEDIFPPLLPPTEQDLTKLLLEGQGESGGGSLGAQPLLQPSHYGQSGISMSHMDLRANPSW

Homo sapiens [30] = assay: Inhibition of IL4/IL13 induced MMP12 gene expression in topically administered human skin preincubated with compound overnight followed by IL4/IL13 stimulation and measured after 3 hrs by qRT-PCR analysis; type: functional, tissue-based; settings: Skin of body, route top, time 11.0 hrs
[31] = Clearance in minipig; type: ADME, Sus scrofa domesticus; settings: pig, in vivo
[32] = Metabolic stability in minipig hepatocytes assessed as intrinsic clearance; type: ADME, cell-based, Sus scrofa domesticus, Hepatocyte; settings: pig
[33] = Drug excretion in iv dosed bile duct cannulated rat bile assessed as unchanged drug; type: ADME, organism-based; settings: read-out: Drug excretion
[34] = Half life in minipig; type: ADME, Sus scrofa domesticus; settings: pig, in vivo

Chain of Non-receptor tyrosine-protein kinase TYK2 (P29597 whole entry): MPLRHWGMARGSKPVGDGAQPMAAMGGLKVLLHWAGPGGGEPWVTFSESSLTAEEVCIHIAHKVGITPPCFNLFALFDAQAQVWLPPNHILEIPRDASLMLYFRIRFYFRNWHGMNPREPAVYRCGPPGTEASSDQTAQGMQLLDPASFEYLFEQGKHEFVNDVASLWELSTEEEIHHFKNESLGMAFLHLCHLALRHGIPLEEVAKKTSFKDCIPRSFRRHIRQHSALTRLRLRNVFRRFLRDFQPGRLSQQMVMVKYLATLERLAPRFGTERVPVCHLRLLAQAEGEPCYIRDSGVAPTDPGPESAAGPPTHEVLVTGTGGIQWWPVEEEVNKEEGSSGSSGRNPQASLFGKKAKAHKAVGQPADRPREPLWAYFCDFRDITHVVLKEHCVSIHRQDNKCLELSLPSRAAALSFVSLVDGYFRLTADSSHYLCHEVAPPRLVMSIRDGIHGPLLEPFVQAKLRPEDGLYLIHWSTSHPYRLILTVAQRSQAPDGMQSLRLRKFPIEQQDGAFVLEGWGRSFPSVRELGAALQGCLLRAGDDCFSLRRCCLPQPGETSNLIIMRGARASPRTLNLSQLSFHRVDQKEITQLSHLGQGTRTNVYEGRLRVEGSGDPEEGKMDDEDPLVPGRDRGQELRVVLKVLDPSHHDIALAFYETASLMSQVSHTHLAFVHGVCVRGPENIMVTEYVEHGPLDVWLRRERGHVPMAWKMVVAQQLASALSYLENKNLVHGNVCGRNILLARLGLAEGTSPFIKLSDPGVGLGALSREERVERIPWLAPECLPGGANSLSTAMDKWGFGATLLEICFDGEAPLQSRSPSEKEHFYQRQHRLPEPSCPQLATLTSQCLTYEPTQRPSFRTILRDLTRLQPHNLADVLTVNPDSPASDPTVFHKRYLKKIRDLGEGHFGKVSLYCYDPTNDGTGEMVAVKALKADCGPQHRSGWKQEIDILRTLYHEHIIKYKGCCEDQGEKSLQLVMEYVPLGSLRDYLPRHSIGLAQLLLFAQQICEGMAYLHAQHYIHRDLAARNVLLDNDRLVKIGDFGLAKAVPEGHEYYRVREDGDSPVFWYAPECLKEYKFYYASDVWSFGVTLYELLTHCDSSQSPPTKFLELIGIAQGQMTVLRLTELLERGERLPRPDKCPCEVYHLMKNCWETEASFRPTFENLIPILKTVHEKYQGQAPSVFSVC
Chain of Tyrosine-protein kinase JAK1 (P23458 whole entry): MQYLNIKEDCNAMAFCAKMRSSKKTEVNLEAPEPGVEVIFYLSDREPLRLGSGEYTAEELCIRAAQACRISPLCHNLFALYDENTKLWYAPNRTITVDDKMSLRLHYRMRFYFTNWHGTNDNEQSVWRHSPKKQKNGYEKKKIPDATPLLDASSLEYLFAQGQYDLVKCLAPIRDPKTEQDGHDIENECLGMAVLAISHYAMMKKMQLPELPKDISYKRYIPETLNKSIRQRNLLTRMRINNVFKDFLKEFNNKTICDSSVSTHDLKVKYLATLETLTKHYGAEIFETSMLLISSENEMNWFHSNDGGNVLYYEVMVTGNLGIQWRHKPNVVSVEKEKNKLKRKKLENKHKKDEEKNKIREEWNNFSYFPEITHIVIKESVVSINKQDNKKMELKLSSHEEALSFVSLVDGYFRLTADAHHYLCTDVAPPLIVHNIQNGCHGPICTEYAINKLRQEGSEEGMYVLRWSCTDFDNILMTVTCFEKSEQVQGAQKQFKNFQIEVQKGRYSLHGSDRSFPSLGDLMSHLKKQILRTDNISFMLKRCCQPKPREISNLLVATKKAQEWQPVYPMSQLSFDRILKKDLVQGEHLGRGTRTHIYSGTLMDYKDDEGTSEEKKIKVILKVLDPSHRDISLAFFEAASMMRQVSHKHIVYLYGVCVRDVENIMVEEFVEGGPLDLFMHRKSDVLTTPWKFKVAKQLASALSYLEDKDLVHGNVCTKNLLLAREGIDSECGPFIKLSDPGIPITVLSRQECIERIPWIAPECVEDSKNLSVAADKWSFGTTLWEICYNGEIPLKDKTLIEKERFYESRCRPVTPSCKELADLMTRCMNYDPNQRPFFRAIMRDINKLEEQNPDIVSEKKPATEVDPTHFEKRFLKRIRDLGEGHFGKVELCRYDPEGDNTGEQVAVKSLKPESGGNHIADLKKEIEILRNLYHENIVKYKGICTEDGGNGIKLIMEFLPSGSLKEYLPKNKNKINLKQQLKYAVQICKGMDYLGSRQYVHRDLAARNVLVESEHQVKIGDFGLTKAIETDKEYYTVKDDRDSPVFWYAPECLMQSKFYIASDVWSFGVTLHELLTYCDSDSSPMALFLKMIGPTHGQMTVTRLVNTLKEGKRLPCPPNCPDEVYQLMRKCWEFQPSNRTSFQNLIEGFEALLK
Chain of JAK1/TYK2 (P23458 whole entry): as above
Chain of JAK1/TYK2 (P29597 whole entry): as the sequence (P29597 whole entry) above
Chain of Tyrosine-protein kinase JAK2 (O60674 whole entry): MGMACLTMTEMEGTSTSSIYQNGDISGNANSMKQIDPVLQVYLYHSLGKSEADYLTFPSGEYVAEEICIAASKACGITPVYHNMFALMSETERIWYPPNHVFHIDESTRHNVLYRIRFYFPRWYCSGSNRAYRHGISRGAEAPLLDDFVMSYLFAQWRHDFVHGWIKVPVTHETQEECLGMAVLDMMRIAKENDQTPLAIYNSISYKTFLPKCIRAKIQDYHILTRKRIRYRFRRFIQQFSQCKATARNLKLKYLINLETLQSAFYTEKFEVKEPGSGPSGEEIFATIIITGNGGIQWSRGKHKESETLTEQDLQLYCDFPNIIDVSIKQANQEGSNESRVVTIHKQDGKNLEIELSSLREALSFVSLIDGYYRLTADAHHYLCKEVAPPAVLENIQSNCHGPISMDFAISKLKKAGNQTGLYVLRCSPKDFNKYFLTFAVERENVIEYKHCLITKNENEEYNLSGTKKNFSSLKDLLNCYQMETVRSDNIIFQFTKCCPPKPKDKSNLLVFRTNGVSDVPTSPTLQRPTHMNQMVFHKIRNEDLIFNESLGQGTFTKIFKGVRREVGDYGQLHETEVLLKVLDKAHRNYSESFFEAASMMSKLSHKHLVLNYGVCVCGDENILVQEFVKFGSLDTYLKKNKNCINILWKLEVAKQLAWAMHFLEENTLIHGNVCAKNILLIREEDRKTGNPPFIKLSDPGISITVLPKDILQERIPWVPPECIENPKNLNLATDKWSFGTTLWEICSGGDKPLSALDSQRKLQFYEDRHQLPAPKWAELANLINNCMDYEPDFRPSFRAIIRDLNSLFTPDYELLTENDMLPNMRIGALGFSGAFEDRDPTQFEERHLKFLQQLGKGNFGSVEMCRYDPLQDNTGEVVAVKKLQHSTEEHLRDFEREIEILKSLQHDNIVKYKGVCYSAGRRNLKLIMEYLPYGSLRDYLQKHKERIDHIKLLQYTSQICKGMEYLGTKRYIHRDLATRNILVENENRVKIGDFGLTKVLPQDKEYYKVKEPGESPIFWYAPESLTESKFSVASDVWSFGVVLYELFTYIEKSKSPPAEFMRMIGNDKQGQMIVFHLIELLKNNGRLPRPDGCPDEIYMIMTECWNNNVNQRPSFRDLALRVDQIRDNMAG
T2 sequence (P23458 whole entry, one chain of several): as the sequence (P23458 whole entry) above
T3 sequence (O60674 whole entry, looked up, one chain of several): as the sequence (O60674 whole entry) above
T3 sequence (P23458 whole entry, looked up, one chain of several): as the sequence (P23458 whole entry) above
T3 sequence (P29597 whole entry, looked up, one chain of several): as the sequence (P29597 whole entry) above
Chain of Mitogen-activated protein kinase kinase kinase kinase 4 (O95819 whole entry): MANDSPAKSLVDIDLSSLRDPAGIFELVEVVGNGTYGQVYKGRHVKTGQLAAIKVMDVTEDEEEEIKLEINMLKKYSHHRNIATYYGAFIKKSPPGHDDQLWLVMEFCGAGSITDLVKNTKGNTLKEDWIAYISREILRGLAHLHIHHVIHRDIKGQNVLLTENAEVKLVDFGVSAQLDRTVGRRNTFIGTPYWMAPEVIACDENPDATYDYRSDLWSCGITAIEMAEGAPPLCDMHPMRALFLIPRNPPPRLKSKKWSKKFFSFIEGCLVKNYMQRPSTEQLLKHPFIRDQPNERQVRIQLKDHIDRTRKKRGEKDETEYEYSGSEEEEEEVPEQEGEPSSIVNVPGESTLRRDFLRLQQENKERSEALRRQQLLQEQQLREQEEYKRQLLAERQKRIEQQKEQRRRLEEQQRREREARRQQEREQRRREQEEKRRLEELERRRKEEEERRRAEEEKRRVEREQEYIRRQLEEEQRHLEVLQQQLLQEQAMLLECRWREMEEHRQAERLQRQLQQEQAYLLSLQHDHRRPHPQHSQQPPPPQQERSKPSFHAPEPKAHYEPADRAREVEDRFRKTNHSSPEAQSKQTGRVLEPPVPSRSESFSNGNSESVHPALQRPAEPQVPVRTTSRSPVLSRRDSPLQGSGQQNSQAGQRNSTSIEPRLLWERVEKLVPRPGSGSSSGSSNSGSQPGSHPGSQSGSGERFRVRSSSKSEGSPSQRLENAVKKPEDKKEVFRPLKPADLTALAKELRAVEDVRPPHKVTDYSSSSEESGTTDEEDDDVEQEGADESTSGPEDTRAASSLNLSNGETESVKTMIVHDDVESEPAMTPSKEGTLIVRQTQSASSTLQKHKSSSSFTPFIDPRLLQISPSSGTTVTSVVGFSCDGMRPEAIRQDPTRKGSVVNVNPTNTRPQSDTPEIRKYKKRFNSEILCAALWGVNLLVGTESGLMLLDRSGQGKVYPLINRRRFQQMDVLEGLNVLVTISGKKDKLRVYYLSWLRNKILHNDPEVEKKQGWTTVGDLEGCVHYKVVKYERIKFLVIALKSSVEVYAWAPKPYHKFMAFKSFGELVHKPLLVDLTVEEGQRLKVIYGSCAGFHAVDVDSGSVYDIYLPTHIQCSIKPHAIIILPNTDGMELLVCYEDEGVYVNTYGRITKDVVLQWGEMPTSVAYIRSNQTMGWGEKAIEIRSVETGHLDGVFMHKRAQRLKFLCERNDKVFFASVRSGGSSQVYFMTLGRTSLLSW

N#CC[C@H](C1CCCC1)n1cc(-c2ncnc3[nH]ccc23)cn1 [RUXOLITINIB]
microsomal CLint (in vitro): 40 µL/min/mg

COc1ccccc1Nc1cc(Nc2cccc(C)n2)ncc1C(N)=O
microsomal CLint (in vitro): 179 µL/min/mg | logD [1]: 3.7 | IC50 [2]: 14 nM | IC50 [3]: 18 nM | IC50 [4]: 15 nM | IC50 (JAK1/TYK2): 33 nM | IC50 [5]: 14 nM | IC50 (JAK3/JAK1 [6]): 994 nM | IC50 (JAK3/JAK1 [7]): 85 nM

NC(=O)c1cnc(Nc2ccccn2)cc1Nc1ccccc1Cl
microsomal CLint (in vitro): 227 µL/min/mg | logD [1]: 3.7 | IC50 [2]: 27 nM | IC50 [3]: 10 nM | IC50 [4]: 11 nM | IC50 (JAK1/TYK2): 84 nM | fraction unbound [8]: < 0.01 | IC50 [5]: 22 nM | IC50 (JAK3/JAK1 [6]): 564 nM | IC50 (JAK3/JAK1 [7]): 41 nM

CC[C@@H]1CN(C(=O)NCC(F)(F)F)C[C@@H]1c1cnc2cnc3[nH]ccc3n12 [UPADACITINIB]
microsomal CLint (in vitro): < 25 µL/min/mg

COc1ccccc1Nc1cc(Nc2ccccn2)ncc1C(N)=O
microsomal CLint (in vitro): 210 µL/min/mg | logD [1]: 3.4 | IC50 [2]: 8 nM | IC50 [3]: 11 nM | IC50 [4]: 6 nM | IC50 (JAK1/TYK2): 31 nM | IC50 [5]: 9 nM | IC50 (JAK3/JAK1 [6]): 340 nM | IC50 (JAK3/JAK1 [7]): 45 nM

COc1ccccc1Nc1cc(Nc2cccnn2)ncc1C(N)=O
microsomal CLint (in vitro): 127 µL/min/mg | logD [1]: 2.4 | IC50 [2]: 29 nM | IC50 [3]: 39 nM | IC50 [4]: 19 nM | IC50 (JAK1/TYK2): 51 nM | IC50 [5]: 29 nM | IC50 (JAK3/JAK1 [6]): 486 nM | IC50 (JAK3/JAK1 [7]): 66 nM

C[C@H]1CN(C(=O)CC#N)[C@]12CCN(c1ncnc3[nH]ccc13)C2 [DELGOCITINIB]
microsomal CLint (in vitro): < 25 µL/min/mg

CCS(=O)(=O)N1CC(CC#N)(n2cc(-c3ncnc4[nH]ccc34)cn2)C1 [BARICITINIB]
microsomal CLint (in vitro): < 25 µL/min/mg

Cc1cccc(Nc2cc(Nc3ccccc3Cl)c(C(N)=O)cn2)n1
microsomal CLint (in vitro): 166 µL/min/mg | inhibition [9]: 74% | logD [1]: 4.3 | IC50 [2]: 48 nM | IC50 [10]: 380 nM | CLH [11]: 94 mL·min/g | dose excreted [12]: 1.3% | Activity [13]: Non-Toxic | CLH [14]: 67 mL·min/g | CLH [15]: 47 mL·min/g | inhibition (Homo sapiens [16]): Active | half-life [17]: 30 min | concentration at 1000 µM [18]: 1.68 µM | IC50 [3]: 59 nM | IC50 [19]: 110 nM | IC50 [4]: 50 nM | inhibition [20]: 100% | inhibition (Homo sapiens [21]): Active | concentration [22]: 13 µM | concentration at 500 µM [23]: 3.51 µM | IC50 (JAK1/TYK2): 85 nM | Drug uptake [24]: < 1 nM | inhibition (Homo sapiens [25]): Active | CLH [26]: 204 mL·min/g | fraction unbound [8]: < 0.01 | solubility [27]: 0.2 µM (≈ 0.0708 µg/mL) | clearance [28]: 82 mL/min/kg | IC50 [5]: 50 nM | inhibition [29]: Active | inhibition (Homo sapiens [30]): Active | IC50 (JAK3/JAK1 [6]): 2350 nM | CL [31]: 52 mL/min/g | CLH [32]: 38 mL·min/g | IC50 (JAK3/JAK1 [7]): 54 nM | dose excreted [33]: < 1% | half-life [34]: 60 min

Cn1cc(Nc2nccc(N3CC4CCC(C3)N4C(=O)[C@@H]3CC3(F)F)n2)cn1
microsomal CLint (in vitro): < 25 µL/min/mg
